In patent US7585851B2, “3′-prodrugs of 2′-deoxy-β-L-nucleosides” (priority 2000, dated 2009):
≈ marks a conversion by molar mass, not a printed value. Where “and” joins values, the source holds several entries; their conditions need not be identical. Equal values may be shown once. Where a name gives a salt, the structure may show the parent alone. Read-outs that look alike come from different tables or passages of the source.

Experiments:
[1] = Day 25, analyte = label
[2] = for Tlast: analyte = label
[3] = Bioavailability of the prodrugs of L-dC in monkeys, with and without L-dT; details: for % BA (bioavailability of L-dC): estimated relative to AUC of L-dC (oral dose)
[4] = biological target: virion-associated DNA polymerase of WHV (Woodchuck hepatitis B virus, UniProt P03160); assay: biochemical
virion-associated DNA polymerase of WHV, sequence (P03160 whole entry): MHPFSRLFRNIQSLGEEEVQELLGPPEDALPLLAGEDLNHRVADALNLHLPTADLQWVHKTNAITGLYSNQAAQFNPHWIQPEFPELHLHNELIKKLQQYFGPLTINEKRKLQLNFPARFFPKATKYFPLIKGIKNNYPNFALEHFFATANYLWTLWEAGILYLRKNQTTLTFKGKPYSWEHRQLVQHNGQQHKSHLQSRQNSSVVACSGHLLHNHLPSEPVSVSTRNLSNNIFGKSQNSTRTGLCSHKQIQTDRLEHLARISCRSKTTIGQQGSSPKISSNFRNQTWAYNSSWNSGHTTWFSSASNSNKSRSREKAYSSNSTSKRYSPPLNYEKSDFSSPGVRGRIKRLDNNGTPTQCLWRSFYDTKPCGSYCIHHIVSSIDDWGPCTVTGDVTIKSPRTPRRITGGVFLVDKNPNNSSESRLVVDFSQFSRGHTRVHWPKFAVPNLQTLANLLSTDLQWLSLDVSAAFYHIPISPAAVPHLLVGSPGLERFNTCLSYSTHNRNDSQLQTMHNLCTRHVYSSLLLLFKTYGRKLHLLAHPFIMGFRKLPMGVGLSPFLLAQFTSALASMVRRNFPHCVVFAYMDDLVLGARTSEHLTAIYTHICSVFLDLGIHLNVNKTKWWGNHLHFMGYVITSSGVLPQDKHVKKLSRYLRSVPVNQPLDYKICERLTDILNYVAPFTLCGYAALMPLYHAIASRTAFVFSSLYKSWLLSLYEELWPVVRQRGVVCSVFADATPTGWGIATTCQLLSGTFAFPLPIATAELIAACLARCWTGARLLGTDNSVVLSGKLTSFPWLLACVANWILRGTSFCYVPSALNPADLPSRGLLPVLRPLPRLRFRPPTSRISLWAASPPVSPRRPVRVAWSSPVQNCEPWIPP

human DNA polymerase β [5] = biological target: T1, human DNA polymerase β (Homo sapiens, UniProt P06746); details: from Chang, et al. / Yao, read-out: IC50 Human DNA pol β; cited from earlier work
human DNA polymerase γ [6] = biological target: T2, human DNA polymerase γ (Homo sapiens, UniProt P54098); details: from Chang, et al. / Yao; cited from earlier work
T2 sequence (P54098 1-1239): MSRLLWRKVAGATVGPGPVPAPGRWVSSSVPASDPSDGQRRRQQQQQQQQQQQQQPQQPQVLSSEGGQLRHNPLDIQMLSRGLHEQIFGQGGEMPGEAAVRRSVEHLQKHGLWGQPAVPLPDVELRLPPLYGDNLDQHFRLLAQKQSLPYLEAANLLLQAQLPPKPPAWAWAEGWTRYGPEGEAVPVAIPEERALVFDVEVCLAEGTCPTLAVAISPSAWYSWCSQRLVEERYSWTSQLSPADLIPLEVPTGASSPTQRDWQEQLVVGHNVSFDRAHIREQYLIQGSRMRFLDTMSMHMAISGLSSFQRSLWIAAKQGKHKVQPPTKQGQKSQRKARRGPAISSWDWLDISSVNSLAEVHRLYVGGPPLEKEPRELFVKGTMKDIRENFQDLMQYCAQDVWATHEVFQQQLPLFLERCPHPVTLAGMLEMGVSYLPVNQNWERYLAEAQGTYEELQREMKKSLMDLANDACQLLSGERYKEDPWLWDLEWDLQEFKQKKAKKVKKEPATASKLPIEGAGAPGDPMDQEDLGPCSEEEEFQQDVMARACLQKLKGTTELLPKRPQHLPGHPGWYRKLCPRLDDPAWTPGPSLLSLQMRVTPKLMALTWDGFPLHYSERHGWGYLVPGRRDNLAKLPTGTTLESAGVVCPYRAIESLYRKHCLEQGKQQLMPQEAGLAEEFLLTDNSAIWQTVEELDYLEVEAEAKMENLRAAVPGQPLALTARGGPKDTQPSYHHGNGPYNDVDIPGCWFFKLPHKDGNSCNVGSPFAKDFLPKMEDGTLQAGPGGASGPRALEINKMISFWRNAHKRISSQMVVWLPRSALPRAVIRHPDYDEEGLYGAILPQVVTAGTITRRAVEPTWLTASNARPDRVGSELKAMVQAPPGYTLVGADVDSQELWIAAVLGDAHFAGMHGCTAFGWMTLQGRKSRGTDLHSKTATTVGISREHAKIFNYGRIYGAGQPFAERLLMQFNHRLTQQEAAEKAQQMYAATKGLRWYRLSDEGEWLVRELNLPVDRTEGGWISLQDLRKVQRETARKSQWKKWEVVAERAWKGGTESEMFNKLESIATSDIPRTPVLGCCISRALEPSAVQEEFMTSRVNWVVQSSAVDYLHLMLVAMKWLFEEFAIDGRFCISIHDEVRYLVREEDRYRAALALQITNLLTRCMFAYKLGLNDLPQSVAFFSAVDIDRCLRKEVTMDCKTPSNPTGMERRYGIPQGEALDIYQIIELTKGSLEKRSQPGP

[7] = Solubility study in water (HPLC); details: for Solubility (g/L) / Solubility (mol/L): in water
human DNA polymerase β [8] = biological target: T1, human DNA polymerase β; assay type: biochemical; details: highest concentration tested 100 μM; read-out: IC50 Human DNA pol β
Excerpt: (§1) Nucleosides and nucleoside analogs are usually metabolized within cells to their TP derivatives. Cellular DNA polymerases are routinely responsible for normal nuclear and mitochondrial DNA synthesis and repair. Because the TP metabolites are potential substrates for DNA polymerases, studies were undertaken to determine if L-dC-TP inhibited human DNA polymerases.

human DNA polymerase γ [9] = biological target: T2, human DNA polymerase γ; assay type: biochemical; details: highest concentration tested 100 μM
Excerpt: as §1

HepG2 cells [10] = details: human
[11] = test system: primary human hepatocytes; details: 24 h, 10 μM
[12] = Mitochondrial toxicity assay in HepG2 cells; assay type: cell-based, human; details: human
[13] = test system: human erythroid burst-forming (BFU-E) progenitor cells; assay type: cell-based; details: human bone marrow clonogenic assay
Excerpt: (§2) In particular, anemia and neutropenia are the most common drug-related clinical toxicities associated with the anti-HIV drug zidovudine (ZDV).

[14] = test system: human granulocyte-macrophage colony-forming (CFU-GM) progenitor cells; assay type: cell-based; details: human bone marrow clonogenic assay
Excerpt: as §2

HepG2 cells [15] = assay: Mitochondrial toxicity assay in HepG2 cells; assay type: cell-based, human; details: human
in vitro = details: human
[16] = test system: cytosolic extracts of HepG2 cells; assay: Steady state phosphorylation kinetics in HepG2 cytosolic extracts; assay type: biochemical, human
[17] = monkey, in vivo, po
[18] = octanol-1 / MilliQ water pH 6.5; Study 1, Study 2; listed as L-dC-3′,5′-divalinyl ester hydrochloride
Method: (§3) To 1 mL of this solution, 1 mL of octanol-1 (B) saturated with MilliQ water (A′) was added.
as §3

[19] = Oral bioavailability of L-dC via dival-L-dC in cynomologus monkey (HPLC study)
Excerpt: The drug was quantitated in plasma and in urine using HPLC analysis.

[20] = Escalating oral dose toxicity of dival-L-dC in monkeys; assay type: in vivo, cynomologus monkey
Excerpt: […]. […] Clinical observations were documented daily. Blood samples for hematology and serum chemistries were collected and body weight measured before treatment on Days 1, 4, 7, 10, and 14, and before necropsy on Day 17. After completion of Day 17 evaluations, all animals were euthanized and a complete necropsy performed, including macroscopic examination and comprehensive tissue collection.

[21] = human
[22] = Log P study, octanol-1/phosphate buffer pH 7.2
[23] = Single dose bioavailability of dival-L-dC (IV and oral) in cynomologus monkey; assay type: in vivo, cynomologus monkey (macaca fascicularis); details: oral dival-L-dC; analyte = label
Excerpt: The drug was quantitated in plasma and urine with a liquid chromatography-mass spectrometry (LC-MS) technique.

[24] = endogenous polymerase assay, read-out: IC50 Viral DNA pol (WHV DNA polymerase)

CC(C)[C@H](N)C(=O)OC[C@@H]1O[C@H](n2ccc(N)nc2=O)C[C@H]1O [5′-val-L-dC, 5′-L-valine ester of 2′-deoxy-β-L-cytidine hydrochloride]
Tlast (median) ([1]; dival-L-dC 1000 mg/kg/day oral, F): 4 h | Tlast (median) ([1]; dival-L-dC 1000 mg/kg/day oral, M): 5 h | Tlast (median) ([1]; dival-L-dC 2000 mg/kg/day oral, F): 8 h | Tlast ([2]; dival-L-dC 1000 mg/kg/day oral, Day 1, F): 4 h | Tlast ([2]; dival-L-dC 1000 mg/kg/day oral, Day 1, M): 4 h | Tlast ([2]; dival-L-dC 1000 mg/kg/day oral, Day 28, F): 4 h | Tlast ([2]; dival-L-dC 1000 mg/kg/day oral, Day 28, M): 8 h | Tlast ([2]; dival-L-dC 2000 mg/kg/day oral, Day 1, F): 8 h | Tlast ([2]; dival-L-dC 2000 mg/kg/day oral, Day 1, M): 8 h | Tlast ([2]; dival-L-dC 2000 mg/kg/day oral, Day 28, F): 24 h | Tlast ([2]; dival-L-dC 2000 mg/kg/day oral, Day 28, M): 8 h | % BA (bioavailability of L-dC) ([3]; oral): 39.0 ± 11.4%

Cc1cn([C@H]2O[C@@H](COP(=O)(O)OP(=O)(O)OP(=O)(O)O)[C@H](O)[C@H]2F)c(=O)[nH]c1=O [L-FMAU-TP]
IC50 [4, 24]: 150 ± 50 nM | IC50 (human DNA polymerase β [5]): > 50000 nM | IC50 (human DNA polymerase γ [6]): > 50000 nM

Nc1ncnc2c1ncn2[C@@H]1CC[C@H](COP(=O)(O)OP(=O)(O)OP(=O)(O)O)O1 [L-ddA-TP]
IC50 [4, 24]: 2000 ± 300 nM

CC(C)[C@H](N)C(=O)O[C@@H]1C[C@@H](n2ccc(N)nc2=O)O[C@H]1CO [3′-val-L-dC, 3′-L-valine ester of 2′-deoxy-β-L-cytidine]
Solubility (g/L) [7]: >408 g/L | Solubility (g/L) ([7]; listed as 3′-valinyl ester hydrochloride of β-L-dC): > 408 g/L | Concentration of solution of the maximum quantity available, single samples ([7]; water, saturation not obtained, 3 samples, listed as 3′-valinyl ester hydrochloride of β-L-dC): 1.013 mol/L and 0.996 mol/L and 1.059 mol/L | % BA (bioavailability of L-dC) ([3]; oral): 85.1 ± 24.5%

O=c1ccn([C@@H]2C[C@@H](O)[C@H](COP(=O)(O)OP(=O)(O)OP(=O)(O)O)O2)c(=O)[nH]1 [L-dU-TP, β-L-2′-deoxyuridine 5′-triphosphate]
IC50 [4]: 5260 nM | IC50 (human DNA polymerase β [8]): > 100000 nM | IC50 (human DNA polymerase γ [9]): > 100000 nM | intracellular metabolite level (HepG2 cells [10]; 24 h, 10 μM): 18.2 ± 1.0 µM | intracellular metabolite level [11]: 43.5 ± 27 µM

Nc1ccn([C@H]2CC[C@@H](CO)O2)c(=O)n1 [ddC, zalcitabine, reference compound]
CC50 at 14 days [12]: 20000 nM

Cc1cn([C@H]2C[C@H](N=[N+]=[N-])[C@@H](CO)O2)c(=O)[nH]c1=O [ZDV, zidovudine, reference compound]
IC50 [13]: 700 nM | IC50 [14]: 1800 nM | CC50 at 14 days [12]: 14000 nM | mtDNA, % of Control (HepG2 cells [15]): 119 % of Control

Nc1ccn([C@@H]2CS[C@H](COP(=O)(O)OP(=O)(O)OP(=O)(O)O)O2)c(=O)n1 [Lamivudine-TP]
IC50 [4, 24]: 500 ± 100 nM | IC50 (human DNA polymerase β [5]): 1200 nM | IC50 (human DNA polymerase γ [6]): 10 nM

Nc1ccn([C@@H]2C[C@@H](O)[C@H](COP(=O)(O)OP(=O)(O)OP(=O)(O)O)O2)c(=O)n1 [L-dC-TP]
IC50 [4]: 1820 nM | IC50 (human DNA polymerase β [8]): > 100000 nM | IC50 (human DNA polymerase γ [9]): > 100000 nM | apparent intracellular half-life (HepG2 cells [10]): 15.5 ± 0.34 h | half-life (in vitro): 15.5 h

Nc1ccn([C@H]2C[C@H](O)[C@@H](CO)O2)c(=O)n1 [D-dC, D-Deoxycytidine, reference compound]
Vmax of phosphorylation [16]: 2.15 nmol/min/mg protein | Solubility (g/L) [7]: 272 g/L (≈ 1200 mM) | Solubility (mol/L) [7]: 1.03 mol/L (≈ 234 mg/mL)

Cc1cn([C@H]2C[C@H](O)[C@@H](CO)O2)c(=O)[nH]c1=O [Thd, D-thymidine]
Vmax of phosphorylation [16]: 1.26 nmol/min/mg protein

CC(=O)OC[C@@H]1O[C@H](n2ccc(N)nc2=O)C[C@H]1OC(C)=O [3′5′-diacetyl-L-dC, 3′,5′-Di-O-acetyl-2′-deoxy-β-L-cytidine]
% BA (bioavailability of L-dC) [17]: 23.0 ± 6.5%

O=c1[nH]c(=O)n([C@@H]2O[C@H](CO)[C@@H](O)[C@@H]2F)cc1I [FIAU, fialuridine, reference compound]
CC50 at 14 days [12]: 4000 nM | mtDNA, % of Control (HepG2 cells [15]): 86 % of Control

CC(C)[C@H](N)C(=O)OC[C@@H]1O[C@H](n2ccc(N)nc2=O)C[C@H]1OC(=O)[C@@H](N)C(C)C [dival-L-dC, 3′,5′-L-divaline ester of 2′-deoxy-β-L-cytidine]
P′ (B/A′) [18]: 1.80 × 10^−3 and 1.77 × 10^−3 | administered oral dose recovered in urine ([19]; after 72 hours): 31% | administered oral dose recovered in urine ([19]; within 8 hours): Approximately 26% | loss in body weight following the initial dose on Day 1 ([20]; 20 mg/kg oral, each animal): approximately 0.6 kg | BUN decrease at Day 17 compared to Day 1 ([20]; cumulative, all four monkeys): ~43% | NOAEL ([20]; single oral dose by gavage (escalation 20-2000 mg/kg), monkey): 2000 mg/kg | plasma protein binding [21]: 13.3%±2.6% | NOAEL ([2]; 28 day oral, rat): < 500 mg/kg | Solubility (mol/L) ([7]; listed as 3′,5′-divalinyl ester hydrochloride of β-L-dC): more than 2.5 mol/L | conversion detected in the organic phase during log P experiment [22]: 14% | share of the oral dose absorbed [3]: approximately 73% | share of the absorbed ester converted to L-dC ([3]; oral): more than 99% | % BA w/ L-dT ([3]; oral, coadministered with 10 mg/kg L-dT): 74.6 ± 9.9% | % BA (bioavailability of L-dC) ([3]; oral, listed as 3′,5′-divaline ester of L-dC): higher oral bioavailability than the parent L-dC | % BA (bioavailability of L-dC) ([3]; oral, listed as L-dC di-valine): 72.7 ± 22.0%

O=c1ccn([C@@H]2C[C@@H](O)[C@H](CO)O2)c(=O)[nH]1 [L-dU, β-L-2′-deoxyuridine]
share of drug excreted / recovered dose in urine, by analyte [23]: approximately 2.5%
